Type in all cases: cell-based
The subject of assay [1] is HIV-1LAI S117T/4XAZT. The assay can be described thus: p24 reduction assay in MT-2 cells, S117T/4XAZT. The settings on record: Table 8. How it is done:
(§1) Cells. MT-2 cells (AIDS Research and Reference Reagent Program, National Institute of Allergy and Infectious Diseases, National Institutes of Health) were maintained in RPMI 1640 supplemented with 10% fetal bovine serum (FBS; JRH Biosciences, Lenexa, Kans.), 10 mM HEPES buffer, 50 IU/ml penicillin and 50 μg/ml streptomycin.
(§2) Antiviral Susceptibility Assays. The antiviral activity of each compound was determined by inoculating MT-2 cells with HIV-1LAI at a multiplicity of infection (MOI) of 0.01 TCID50/cell, followed by incubation in the presence of three-fold serial drug dilutions (3 wells per dilution) (see Mellors, et. al., Antimicrob. Agents Chemother. 39:1087-1092). Five or seven days after infection, culture supernatants were harvested, lysed with 0.5% triton-X 100 and assayed for p24 antigen concentration using a commercial ELISA assay (DuPont, NEN Products, Wilmington, Del.). The antiviral activity of the compounds is expressed as the IC50, which is the concentration required to inhibit 50% of p24 antigen production. The fold-resistance of a test virus is calculated by dividing the IC50 of the test virus by the IC50 of the HIV-1LAI control virus.
(§3) Generation of Mutant Recombinant HIV-1. […]
(§4) Recombinant viruses containing the mutations selected by invention compounds were also evaluated for their susceptibility to AZT, as shown in Table 8.

Assay [2] deals with HIV-1LAI M164I. The experiment in a line: p24 reduction assay in MT-2 cells, M164I. To be noted: Table 8. How it is done: as §1, §2, §3, §4
The subject of assay [3] is HIV-1LAI L214F. The experiment in a line: p24 reduction assay in MT-2 cells, L214F. To be noted: Table 8. How it is done:
as §1, §2, §3, §4

Assay [4] concerns HIV-1LAI S117T/L214F. The experiment in a line: p24 reduction assay in MT-2 cells, S117T/L214F. To be noted: Table 8. How it is done: as §1, §2
Generation of Mutant Recombinant HIV-1. HIV-1 containing the desired mutations were generated by oligonucleotide directed mutagenesis (Altered Sites II, Promega) as previously described (Mellors, et. al., Molecular Pharm. 41:446-451). After mutagenesis, mutant RT was subcloned into the pxxHIV-1LAI cloning vector using the silent XmaI and XbaI restriction sites located at the 5′ and 3′ ends of RT. Clones were DNA sequenced to verify the presence of the desired mutation(s) and electroporated into MT-2 cells as described above to generate infectious mutant recombinant HIV-1.
Mutant RT was generated via oligonucleotide-directed mutagenesis and ligated into the pXXHIV-1LAI cloning vector. […]
as §4

In assay [5] the test system is HIV-1LAI M164I/4XAZT. The experiment in a line: p24 reduction assay in MT-2 cells, M164I/4XAZT. To be noted: Table 8. How it is done:
as §1, §2, §3, §4

Assay [6] has as its system HIV-1LAI selected with EB-PFA, passage 15 (W88G, L214F). The experiment in a line: Susceptibility of virus selected in vitro with EB-PFA. How it is done:
as §2
(§5) Selection of Resistant Viruses. […] Viral cytopathic effects (CPE) were monitored daily. […] The passaged virus was monitored regularly for a reduction in susceptibility to the compounds by determining the EC50 relative to unpassaged HIV-1LAI (Mellors, et. al., Antimicrob. Agents Chemother. 39:1087-1092). […]

Assay [7] relates to HIV-1LAI selected with PFA, passage 15 (S117T). The assay can be described thus: Susceptibility of virus selected in vitro with PFA, passage 15. How it is done: as §2, §5
(§6) As controls for the invention compound selections, HIV-1LAI was passaged in the presence and absence of unmodified PFA. […] None of the mutations selected by the invention compounds or free PFA were detected in control viruses passaged in the absence of drug.

Assay [8] has as its system HIV-1LAI selected with PFA, passage 17 (W88G). The experiment in a line: Susceptibility of virus selected in vitro with PFA, passage 17. How it is done: as §2, §5, §6
In assay [9] the test system is panel of drug resistant HIV-1 viruses. The assay can be described thus: p24 reduction assay, panel of drug resistant HIV-1 viruses (summary). To be noted: Human immunodeficiency virus 1, read-out: EC50 values (range over strains).
Procedure: The μM concentration required to produce 50% inhibition of replication of the drug-resistant strain of HIV (EC50) was determined as shown in Table 1. Drug effects were measured by assaying p24 (a viral protein) in the culture medium.
The test system of assay [10] is HIV-1LAI selected with MB-PFA, passage 15. The experiment in a line: Susceptibility of virus selected in vitro with MB-PFA. How it is done: as §2
Selection of Resistant Viruses. Selections were initiated by inoculating 1.0×10^6 MT-2 cells at an MOI of 0.1 with plasmid derived HIV-1LAI which had been passaged as cell-free virus 10 times in MT-2 cells in the absence of compound (see Bazmi, et. al., Antimicrobial Agents and Chemotherapy 44:1783-1788). Cells were pretreated with drug for two hours prior to inoculation with virus. For each selection, the starting concentration was the IC50 of the compound, and the selective pressure (i.e. drug concentration) was doubled every three passages. Viral cytopathic effects (CPE) were monitored daily. At 2+CPE (≧2 syncitia per 100× field) cell free virus supernatant was harvested and used to initiate a new cycle of infection in fresh MT-2 cells. The passaged virus was monitored regularly for a reduction in susceptibility to the compounds by determining the EC50 relative to unpassaged HIV-1LAI (Mellors, et. al., Antimicrob. Agents Chemother. 39:1087-1092).
Genetic Analyses. Virions were pelleted from culture supernatants by centrifugation at 25,000×g for 1 hour. Total RNA was extracted from the virus pellet using TRIZOL® Reagent (Gibco BRL, Grand Island, N.Y.) and resuspended in diethyl pyrocarbonate-treated sterile water. […]

The mark [11] stands for this setting: Table 6, passage 15, relative to passage 0.

Four compounds from patent US20030207843A1, “Treatment of drug-resistant human immunodeficiency virus infection” (priority 1999, published 2003) can be followed below.

“And” between values parts separate entries of the source, which are not always exact repeats. Equal entries are not always repeated.

With `Cc1cn([C@H]2C[C@H](N=[N+]=[N-])[C@@H](CO)O2)c(=O)[nH]c1=O` [AZT, 3′-Azido-3′-deoxythymidine], the EC50 in assay [1] (Human immunodeficiency virus 1, MT2, S117T/4XAZT, read-out: AZT EC50) came to 40 ± 6 nM; in assay [2] (Human immunodeficiency virus 1, MT2, M164I, read-out: AZT EC50), 12 ± 4 nM; in [3] (Human immunodeficiency virus 1, MT2, L214F, read-out: AZT EC50) it was 35 ± 33 nM; in assay [4] (Human immunodeficiency virus 1, MT2, S117T/L214F, read-out: AZT EC50), 22 ± 10 nM; in assay [5] (Human immunodeficiency virus 1, MT2, M164I/4XAZT, read-out: AZT EC50) it was 43 ± 22 nM. In addition, the Fold resistance turned out to be 1.4 in [1] (S117T/4XAZT relative to wild type virus); 0.6 in assay [2] (M164I relative to wild type virus); 1.7 in assay [3] (L214F relative to wild type virus); 1.1 in assay [4] (S117T/L214F relative to wild type virus); 1.1 in assay [5] (M164I/4XAZT relative to wild type virus).
The compound `CCCCCCCCCCCCCCCCCCOC[C@H](COP(=O)(O)C(=O)O)OCC` [EB-PFA, 1-O-octadecyl-2-O-ethyl-sn-glycero-3-PFA] registered an EC50 in [6] (Table 6, passage 15 (W88G, L214F)) of 3700 nM. Moreover, in [6] (setting [11]), the Fold resist. was 41 and 41.1.
For `O=C(O)P(=O)(O)O` [PFA, phosphonoformate, reference compound], the EC50 in assay [7] (Human immunodeficiency virus 1, Table 6, passage 15 (S117T)) was 122000 nM; in assay [8] (Human immunodeficiency virus 1, Table 6, passage 17 (W88G)), 122000 nM; in [9], 7600 to 37400 nM. Also, the Fold resist. was 23 and 23.2 in assay [7] (setting [11]); 23 and 23.2 in [8] (Table 6, passage 17, relative to passage 0).
Compound `CCCCCCCCCCCCCCCCCCOC[C@H](COP(=O)(O)C(=O)O)OC` [MB-PFA, 1-O-octadecyl-2-O-methyl-sn-glycero-3-PFA] returned a Fold resistance in assay [10] (Example 6, repeated selection, after 15 passages (M164I and L214 mutations, not V75L)) of 31 fold. The same compound gave an EC50 in assay [10] (Table 6, MB-PFA-selected virus, passage 15 (V75L, M164I, L214F)) of 2160 nM. The Fold resist. in assay [10] (Table 6, MB-PFA-selected virus, passage 15, relative to passage 0) is 27 and 30.9.
